Experimental data published in ChEMBL document CHEMBL2163249, “Exploration of natural compounds as sources of new bifunctional scaffolds targeting cholinesterases and beta amyloid aggregation: the case of chelerythrine” (Bioorg Med Chem, 2012).

How the values were obtained:
[1] = target: Cholinesterase (Equus caballus) (UniProt P81908); conditions: at 2 mg/mL
Description: Inhibition of horse BChE at 2 mg/ml by Ellman's method

[2] = target: Acetylcholinesterase (Electrophorus electricus) (UniProt O42275); conditions: at 2 mg/mL
Chain of Acetylcholinesterase (Electrophorus electricus) (O42275 24-633 limits assumed): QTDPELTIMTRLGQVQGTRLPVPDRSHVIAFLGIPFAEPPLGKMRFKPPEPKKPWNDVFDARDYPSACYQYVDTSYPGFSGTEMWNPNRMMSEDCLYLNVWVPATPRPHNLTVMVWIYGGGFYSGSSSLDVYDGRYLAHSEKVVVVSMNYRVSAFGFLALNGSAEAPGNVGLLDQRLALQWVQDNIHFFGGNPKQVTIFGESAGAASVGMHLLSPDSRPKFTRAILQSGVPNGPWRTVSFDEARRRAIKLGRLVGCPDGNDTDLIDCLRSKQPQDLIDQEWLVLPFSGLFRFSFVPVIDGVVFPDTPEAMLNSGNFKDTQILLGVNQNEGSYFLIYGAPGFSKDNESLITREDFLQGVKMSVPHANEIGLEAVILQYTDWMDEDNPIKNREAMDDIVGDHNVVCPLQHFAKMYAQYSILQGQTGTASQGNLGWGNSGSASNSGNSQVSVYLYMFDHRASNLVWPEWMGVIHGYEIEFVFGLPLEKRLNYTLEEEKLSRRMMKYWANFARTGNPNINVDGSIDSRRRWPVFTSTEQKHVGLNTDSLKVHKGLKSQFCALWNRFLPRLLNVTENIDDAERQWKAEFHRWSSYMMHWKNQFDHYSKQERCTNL
Description: Inhibition of electric eel AChE at 2 mg/ml by Ellman's method

Chain of Cholinesterase (Equus caballus) (P81908 whole entry): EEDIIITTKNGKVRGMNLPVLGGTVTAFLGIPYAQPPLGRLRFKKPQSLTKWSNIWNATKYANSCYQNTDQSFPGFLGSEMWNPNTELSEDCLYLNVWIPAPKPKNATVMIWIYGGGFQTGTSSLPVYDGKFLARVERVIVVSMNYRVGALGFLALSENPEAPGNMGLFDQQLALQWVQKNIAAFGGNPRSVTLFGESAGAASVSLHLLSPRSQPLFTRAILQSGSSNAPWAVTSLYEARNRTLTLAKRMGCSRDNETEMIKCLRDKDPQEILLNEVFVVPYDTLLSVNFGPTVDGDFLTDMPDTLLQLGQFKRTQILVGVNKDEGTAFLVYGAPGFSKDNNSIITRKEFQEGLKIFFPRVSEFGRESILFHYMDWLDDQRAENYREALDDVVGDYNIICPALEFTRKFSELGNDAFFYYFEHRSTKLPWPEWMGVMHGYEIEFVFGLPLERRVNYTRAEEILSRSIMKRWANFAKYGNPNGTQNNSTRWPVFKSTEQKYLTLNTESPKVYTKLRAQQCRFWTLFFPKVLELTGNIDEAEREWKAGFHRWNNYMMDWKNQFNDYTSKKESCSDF

SMILES	inhibition [1] [%]	inhibition [2] [%]
c1coc(CNc2ncnc3[nH]cnc23)c1	3.13	-5.12
COc1ccc(C[C@H]2NC[C@H](O)[C@H]2OC(C)=O)cc1	-3.31	-1.2
COc1cc2c(cc1CC=C(C)C)C(=O)C[C@@H](c1ccc(O)cc1)O2	4.89	23.2
CO[C@H]1[C@@H](O)[C@@H](C)O[C@H](O[C@H]2[C@H](Oc3cccc4c(O)c5c(=O)oc6ccc(C)c7c(=O)oc(c34)c5c67)O[C@H](C)[C@H](O)[C@@H]2O)[C@@H]1O	7.94	17.5
C[C@@H]1CC[C@H]2[C@@H](C)C(=O)O[C@@H]3O[C@@]4(C)CC[C@@H]1[C@]32OO4	35.6	2.43
COC(=O)[C@@H]1[C@H]2C[C@H]3c4[nH]c5ccccc5c4CCN3C[C@@H]2CC[C@@H]1O	-2.5	16.2
C[C@@H]1NCCc2cc(O)c(O)cc21	-1.84	19.3
O=c1oc2cc(O)ccc2c2oc3cc(O)ccc3c12	9.06	3.18
CC(=O)O[C@H]1C(=O)[C@@]2(C)[C@H]([C@H](OC(=O)c3ccccc3)[C@]3(O)C[C@H](OC(=O)[C@H](O)[C@@H](NC(=O)c4ccccc4)c4ccccc4)C(C)=C1C3(C)C)[C@]1(OC(C)=O)CO[C@@H]1C[C@@H]2O	-2.88	12.5
CC(C)C[C@H](NC(=O)[C@H]1O[C@@H]1C(=O)O)C(=O)NCCCCN=C(N)N	12.1	-7.43
CC1=C[C@]23C(=O)[C@@H](C=C(COC(=O)c4ccccc4)[C@@H](O)[C@]2(O)[C@H]1OC(=O)c1ccccc1)[C@H]1[C@@H](C[C@H]3C)C1(C)C	1	-0.16
OCc1c[nH]c2ccccc12	9.11	-4.82
O=c1c(O)c(-c2ccc(O)cc2O)oc2cc(O)cc(O)c12	-3.98	18.1
COC(=O)/C(=C1/OC(=O)C(c2ccccc2)=C1O)c1ccccc1	0.35	4.9
CCCCCCCCCCC[C@@H](C[C@@H]1OC(=O)[C@H]1CCCCCC)OC(=O)[C@H](CC(C)C)NC=O	7.43	-6.52
COc1c(O)cc(O)c2c(=O)cc(-c3ccccc3)oc12	-5.86	-1.48
C/C=C(/C)C(=O)O[C@H]1CC[C@@]2(C)[C@@H]3CC[C@H]4[C@]5(O)C[C@H](O)[C@@]6(O)[C@@H](CN7C[C@@H](C)CC[C@H]7[C@@]6(C)O)[C@]5(O)C[C@@]42O[C@]13O	6.44	-3.72
COc1ccc2cc1Oc1ccc(cc1)C[C@@H]1c3cc(c(OC)cc3CCN1C)Oc1c(OC)c(OC)cc3c1[C@H](C2)N(C)CC3	21.9	-1.02
O=C(/C=C/c1ccc(O)c(O)c1)O[C@@H]1C[C@](O)(C(=O)O)C[C@@H](O)[C@H]1O	4.8	10.8
COc1cc([C@@H]2CC(=O)c3c(O)cc(O)cc3O2)ccc1O	3.1	29.5
CC1(C)CCC[C@]2(C)[C@H]3CC(=O)O[C@]3(C)CC[C@@H]12	-1.03	-6.49
CC1=NCCc2c1[nH]c1cc(O)ccc21	34.5	41.8
COc1ccc([C@@H]2CC(=O)c3c(O)cc(O)cc3O2)cc1O	-8.75	-4.02
Cc1cc(O)c2c(c1)C(=O)c1cc(O)cc(O)c1C2=O	1.03	24.3

SMILES	inhibition [1] [%]	inhibition [2] [%]
COc1ccc(-c2coc3cc(O)ccc3c2=O)cc1	0.57	1.62
C=C1C(=O)[C@]23[C@H](O)[C@H]1CC[C@H]2[C@@]12CO[C@]3(O)[C@@H](O)[C@@H]1C(C)(C)CC[C@@H]2O	0.03	24.7
COc1cc(-c2oc3cc(O)cc(O)c3c(=O)c2O)ccc1O	-2.06	5.76
O=c1c(O)c(-c2ccccc2)oc2cc(O)cc(O)c12	2.59	6.98
C[C@@]1(CO)[C@H](O)CC[C@@]2(C)[C@H]1CC[C@H]1C[C@@H]3C[C@@]12CC[C@]3(O)CO	13.5	8.45
CC(=O)c1c(O)c(C)c(O)c(Cc2c(O)c3c(c(C(=O)/C=C/c4ccccc4)c2O)OC(C)(C)C=C3)c1O	4.24	15.8
NC[C@H]1O[C@H](O[C@H]2[C@H](O)[C@@H](O[C@H]3O[C@H](CO)[C@@H](O)[C@H](N)[C@H]3O)[C@H](N)C[C@@H]2N)[C@H](O)[C@@H](O)[C@@H]1O	-5.91	17.6
C[C@H]1CCC/C=C/[C@@H]2C[C@H](O)C[C@H]2[C@H](O)/C=C/C(=O)O1	5.24	-3.21
COC1=C[C@@H]2[C@@H]3Cc4ccc(OC)c(O)c4[C@]2(CCN3C)CC1=O	5.14	4.63
COc1cc(C(=O)O[C@H]2C[C@@H]3CC[C@]2(C)C3(C)C)ccc1O	1.44	25.2
O[C@H]1[C@H]2[C@H](O)CCCN2C[C@H]1O	-2.04	5.09
Cc1c2ccncc2c(C)c2c1[nH]c1ccccc12	44.1	-1.87
N[C@@H](Cn1ccc(=O)c(O)c1)C(=O)O	11.2	7.74
COc1cc2c(cc1O)CCN[C@H]2C	-4.77	10.8
CC1(C)C2CCC1(C(=O)O)C(=O)C2 (stereo not given)	-2.51	16.7
CCOC(=O)Oc1c(OC)cc(C(=O)O[C@@H]2C[C@@H]3CN4CCc5c([nH]c6cc(OC)ccc56)[C@H]4C[C@@H]3[C@H](C(=O)OC)[C@H]2OC)cc1OC	-6.04	-6.1
CC(C)=CCC/C(C)=C/CC/C(C)=C/CC/C(C)=C/C(=O)O	-2.05	-5.57
C[C@@]12CCc3occc3[C@H]1CC[C@@]13C[C@@H](CC[C@H]12)[C@@](O)(CO)C3	13.8	-1.43
COc1cccc2c1C(=O)c1c(O)c3c(c(O)c1C2=O)C[C@@](O)(C(=O)CO)C[C@@H]3O[C@H]1C[C@H](N)[C@H](O)[C@H](C)O1	1.2	10.4
COC1=CC(=O)O[C@@H](/C=C/c2ccc3c(c2)OCO3)C1	0.15	-4.34
CC[C@@H]1C(=O)OC[C@@H]1Cc1cncn1C	1.99	20
O=c1cc(-c2ccc(O)c(O)c2)oc2cc(O)c([C@@H]3O[C@H](CO)[C@@H](O)[C@H](O)[C@H]3O)c(O)c12	-4.72	23.9
C=C[C@H]1CN2CC[C@H]1C[C@H]2[C@H](O)c1ccnc2ccc(OC)cc12	24.7	15.8
CCCCCCCCCCCCCC[C@@H](O)[C@@H](O)[C@@H](N)CO	7.46	24.4

SMILES	inhibition [1] [%]	inhibition [2] [%]
O=C(O)c1cc(N(Cc2ccccc2O)Cc2cc(O)ccc2O)ccc1O	17.7	2.35
CC1=C2C(=O)[C@H]3[C@@H](CC=C4C[C@@H](O)CC[C@@]43C)[C@@H]2CC[C@]12O[C@@H]1C[C@H](C)CN[C@H]1[C@H]2C	5.64	-9.1
C[C@@H]1C/C=C/C=C/C=C/C=C/[C@H](O[C@@H]2O[C@H](C)[C@@H](O)[C@H](N)[C@@H]2O)C[C@@H]2O[C@](O)(C[C@@H](O)C[C@H]3O[C@@H]3/C=C/C(=O)O1)C[C@H](O)[C@H]2C(=O)O	-8.59	-4.37
CO[C@@H]1[C@H](OC(=O)/C=C/C=C/C=C/C=C/C(=O)O)CC[C@]2(CO2)[C@H]1[C@@]1(C)O[C@@H]1CC=C(C)C	-3.3	-8.57
CO[C@H]1/C=C/O[C@@]2(C)Oc3c(C)c(O)c4c(O)c(c(/C=N/N5CCN(C)CC5)c(O)c4c3C2=O)NC(=O)/C(C)=C\C=C\[C@H](C)[C@H](O)[C@@H](C)[C@@H](O)[C@@H](C)[C@H](OC(C)=O)[C@@H]1C	1.88	16.2
COc1cc(/C=C/c2ccccc2)oc(=O)c1	-0.13	-0.87
CC(C)C[C@H]1C(=O)N2CCC[C@H]2[C@]2(O)O[C@](NC(=O)[C@@H]3C=C4c5cccc6[nH]c(Br)c(c56)C[C@H]4N(C)C3)(C(C)C)C(=O)N12	9.94	-0.33
O=c1c(O)c(-c2cc(O)c(O)c(O)c2)oc2cc(O)cc(O)c12	-3.14	4.65
CCCCC[C@H](O)/C=C/[C@H]1[C@H](O)CC(=O)[C@@H]1C/C=C\CCCC(=O)O	-2.38	14.8
COc1cc2c(c3oc4cccc(O)c4c(=O)c13)[C@@H]1C=CO[C@@H]1O2	-2.65	18.2
CN1CCC[C@H]1c1cccnc1	1.2	15.6
COc1ccc2cc1Oc1ccc(cc1)C[C@H]1c3cc(c(OC)cc3CCN1C)Oc1c(OC)c(OC)c(OC)c3c1[C@H](C2)N(C)CC3	-7.66	23.4
COc1ccc2[nH]cc(CCNC(C)=O)c2c1	1.01	15.5
COc1cc2c(c(OC)c1OC)-c1c(cc(OC)c(OC)c1OC)C[C@H](C)[C@H](C)C2	-4.82	-1.7
Cc1cc(O)c2c(=O)c3c(O)cc(O)c4c5c(O)cc(O)c6c(=O)c7c(O)cc(C)c8c1c2c(c34)c(c78)c65	14.3	-7.15
C=C(C)[C@@H]1CC=C(C(=O)O)CC1	3.58	-3.9
C=CCc1ccc(O)c(-c2ccc(O)c(CC=C)c2)c1	7.62	-3.48
O=c1cc(-c2ccc(O)c(OC3O[C@H](CO)[C@@H](O)[C@H](O)[C@H]3O)c2)oc2cc(OC3O[C@H](CO)[C@@H](O)[C@H](O)[C@H]3O)cc(O)c12 (stereo not given in full)	-2.06	28.6
CSC(=S)NCc1c[nH]c2ccccc12	-5.64	-0.26
CC1=C(/C=C/C(C)=C\C=C\C(C)=C\C(=O)O)C(C)(C)CCC1	-2.78	14.3
O=C(/C=C/c1ccc(O)cc1)CC(=O)/C=C/c1ccc(O)cc1	7.13	2
C=C1[C@@H](C)[C@H]2[C@H](Cc3ccccc3)NC(=O)[C@]23OC(=O)/C=C/[C@H](O)CCC[C@@H](C)C/C=C/[C@H]3[C@@H]1O	8.94	-2.03
